# Data published in patent US9862690B2, “Treatment of pulmonary and other conditions” (University of Pittsburgh—of the Commonwealth System of …, priority 2013, dated 2018).
# What was measured:
# [1] = tested on: human lung fibroblasts (IMR-90; fibroblasts of normal or UIP patients); assay: TGF-β-treated lung fibroblast proliferation and myofibroblast differentiation; type: cell-based; conditions: pretreatment 0.1 to 1 μM, then TGF-β 24 h
# Protocol: IMR-90 cells were cultured in Dulbecco's modified Eagle's medium (DMEM) containing 10% heat-inactivated fetal bovine serum, penicillin, and streptomycin (100 IU/ml). Monolayer cultures were deprived of serum for 24 h, and treated with different concentrations of PB141 for different time periods as indicated. Cell numbers were then counted at 24, 48, and 72 h. Data are representative of one of two independent experiments; n=3.
# IMR-90 cells were cultured in Dulbecco's modified Eagle's medium (DMEM) containing 10% heat-inactivated fetal bovine serum, penicillin, and streptomycin (100 IU/ml). Monolayer cultures were deprived of serum for 24 h, pre-treated with 0.5 μM PB141 or with vehicle (saline) for 1 h, and then exposed to 2 ng/ml TGF-β for 24 h. (A) Western blot analysis for α-smooth muscle actin. (B) Quantitative values for each condition. ***P<0.001 vs Veh. (C) Immunofluorescence microscopy for α-SMA following treatment. Blots and images are representative of two independent experiments.
# Additional in vitro experiments were performed using normal human fetal lung fibroblasts (IMR-90; Institute for Medical Research, Camden, N.J.) or fibroblasts grown from mechanically dissociated surgical lung biopsy of histologically normal or usual interstitial pneumonia (UIP) patients. […]
# [2] = tested on: mice (lung, kidney, liver and other organs); assay: Toxicity of long-term, high-dose nebulized delivery; type: in vivo; conditions: 25 mg/kg or 250 mg/kg aerosolized daily up to 30 days
# Protocol: (§1) PB141 was delivered to mice by nebulization at doses of 25 or 250 mg/kg for up to 30 days. (A) Lungs were excised, sectioned, and examined histologically for evidence of inflammation or injury. (B) Potential kidney and liver injury were assessed by serum levels of creatinine, AST, and ALT. […] Acute lung injury was induced in mice by intratracheal administration of LPS. Thirty min later PBS or varying concentrations of PB141 were delivered into cage air by nebulization. Following sacrifice, nuclear proteins were isolated from lungs and used to determine DNA-binding activity of the p65 subunit of the pro-inflammatory transcription factor NF-κB.
# PB141 (25 mg/kg or 250 mg/kg) was aerosolized to mice daily for up to 30 consecutive days. The standard dose used in efficacy studies is 25 mg/kg for 1-10 days. At the conclusion of each experiment blood was collected and the lungs were excised and examined histopathologically for evidence of injury or toxicity. Serum levels of creatinine and aspartate (AST) and alanine (ALT) aminotransferases were measured using enzyme-linked immunosorbent assay (ELISA) kits (R&D Systems, Minneapolis, Minn.) according to the manufacturer's instructions. At the end of 30 days' exposure, other organs were also excised and similarly examined (data not shown).
# [3] = tested on: chronic hypoxia-induced pulmonary hypertension in mice; assay: Chronic hypoxia-induced pulmonary hypertension model; type: in vivo; conditions: 25 mg/kg nebulized during last 10 days of 3 weeks hypoxia
# Protocol: CH-induced pulmonary hypertension was produced in mice by exposing them to chronic hypoxia (CH; FIO2 10%) or room air (N; control) for 3 weeks. During the last 10 days of exposure, PB141 (25 mg/kg) or vehicle (saline) was nebulized and delivered to cage air via a micropump nebulizer. Twenty-four hours following the last nebulization mice were anesthetized and the right internal jugular vein of each mouse was surgically exposed and cannulated with a pressure transducer that was advanced to record right ventricular pressure, then advanced further to measure pulmonary arterial pressure: (top left) mean pulmonary arterial pressure; (top right) right ventricular systolic pressure (RVSP); (bottom left) […]; (bottom right) right ventricular hypertrophy. Data are representative of one of two independent experiments with n=4-6 mice per group.
# CH-induced pulmonary hypertension was produced in mice by exposing them to CH (FIO2 10%) or room air for 3 weeks. During the last 10 days of exposure, PB141 (25 mg/kg) or vehicle (saline) was nebulized and delivered to cage air via a micropump nebulizer. Twenty-four hours following the last nebulization lung samples were obtained. Graphs show medial wall thickness of a-SMA-positive acinar blood vessels and percent of non-muscularized, partially muscularized, and fully muscularized small vessels. Data are representative of one of two independent experiments with n=4-6 mice per group.
# Pulmonary hypertension was induced in mice by exposing them to chronic hypoxia (FiO2 10%) for 3 weeks. Control mice breathed room air during the last 10 days of exposure, PB141 (25 mg/kg) or vehicle (saline) was nebulized into the cage air for 30 min via a nebulizer.
# Twenty-four hours following the last PB141 administration, mice were anesthetized, and the right internal jugular vein of each mouse was surgically exposed and cannulated with a pressure transducer that was advanced to record right ventricular systolic pressure (RVSP), which is elevated in pulmonary hypertension. […] The heart was then excised and the right ventricle was separated from the left ventricle (including the septum). Each ventricle was weighted separately.
# Twenty-four hours following the last PB141 administration, lung samples were obtained. Immunostaining for α-SMA, a key marker in pulmonary hypertension, was performed in paraffin sections of lung and the sections were examined microscopically. […] All these measures of vascular wall remodeling in small pulmonary vessels, the pathophysiology underlying pulmonary hypertension, were reduced by PB141 treatment (FIG. 20).
# p65 subunit of NF-κB = target: T1, p65 subunit of NF-κB (Mus musculus, UniProt Q04207); assay: LPS-induced lung NF-κB p65 DNA-binding activity after nebulized delivery; type: in vivo, mice; conditions: i.t. LPS; different concentrations nebulized 30 min later for 30 min
# T1 construct: Following sacrifice, nuclear proteins were isolated from lungs; from tissue; host or cells: mouse lung (nuclear proteins)
# T1 sequence (Q04207 whole entry): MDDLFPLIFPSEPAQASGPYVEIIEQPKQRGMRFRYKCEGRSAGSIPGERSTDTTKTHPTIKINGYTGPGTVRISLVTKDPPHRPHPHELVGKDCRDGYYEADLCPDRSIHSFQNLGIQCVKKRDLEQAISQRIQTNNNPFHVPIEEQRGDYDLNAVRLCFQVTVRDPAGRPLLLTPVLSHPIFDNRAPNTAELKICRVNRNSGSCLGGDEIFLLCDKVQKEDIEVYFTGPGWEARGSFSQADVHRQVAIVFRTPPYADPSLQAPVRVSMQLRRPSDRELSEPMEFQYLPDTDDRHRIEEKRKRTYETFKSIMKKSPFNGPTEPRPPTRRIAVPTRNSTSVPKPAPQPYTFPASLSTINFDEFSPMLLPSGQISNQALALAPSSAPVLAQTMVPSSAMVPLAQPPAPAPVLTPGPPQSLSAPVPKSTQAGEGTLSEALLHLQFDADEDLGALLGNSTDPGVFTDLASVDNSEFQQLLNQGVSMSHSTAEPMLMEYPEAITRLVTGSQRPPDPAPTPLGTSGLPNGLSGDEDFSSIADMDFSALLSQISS
# Protocol: as §1
# In other experiments, acute lung injury was induced by intratracheal (i.t.) injection of endotoxin [lipopolysaccharide (LPS)] prepared from Escherichia coli O111:B6 (Sigma-Aldrich; St. Louis, Mo.). Thirty minutes later different concentrations of PB141 in isotonic saline were nebulized and delivered into cage air for 30 min using a micropump nebulizer (Buxco Research Systems, Wilmington, N.C.) fitted at the chamber inlet and flowing at 10 L of air/min. PBS was similarly delivered as a control. Nuclear proteins were prepared from lung samples and their concentrations were determined and used to quantify DNA-binding activity of the p65 subunit of the pro-inflammatory transcription factor NF-κB.
smiles,measurement,setting,value
CC(=O)N[C@@H](CSC(CC(=O)CC(SC[C@H](NC(C)=O)C(=O)O)c1cnccn1)c1cnccn1)C(=O)O (stereo partly drawn) [PB141],Proliferation of human lung fibroblasts,[1],inhibited
same,Differentiation to myofibroblasts (α-SMA),[1]; including UIP patient fibroblasts,inhibited
same,"Injury or toxicity (lung histopathology, serum creatinine, AST, ALT, other organs)",[2],No evidence of injury or toxicity
same,Increase in ratio of right ventricular weight to left ventricle plus septum,[3],significantly reduced
same,Increase in right ventricular systolic pressure (RVSP),[3],significantly smaller
same,"Measures of vascular wall remodeling (α-SMA-positive vessels, muscularization, median wall thickness)",[3],reduced
same,Pulmonary arterial pressure,[3],significantly smaller
same,Pulmonary vascular resistance,[3],significantly smaller
same,LPS-induced upregulation of NF-κB in lung,p65 subunit of NF-κB,inhibited the LPS-induced upregulation of NF-κB in a concentration-dependent manner
